The source of these data is ChEMBL document CHEMBL1123870, “Limited nerve impulse blockade by "leashed" local anesthetics” (1987).

A short description of the test: Tonic inhibition of compound action potential by 50% was determined in the absence of avidin in desheathed frog sciatic nerves. The test is classed as functional. The note with it: Amphibia, Sciatic nerve; read-out: ED50 (the source's name).

pEC50: −log10 of the molar value.

For `CCN(CC)CCOC(=O)c1ccc(NC(=O)OCCOCCOCCOC(=O)CCCC[C@H]2SCC3NC(=O)NC32)cc1` (some centres not stated), the pEC50 is 2.62. `CCN(CC)CCOC(=O)c1ccc(NC(=O)CCCC[C@H]2SCC3NC(=O)NC32)cc1` (some centres not stated): the pEC50 is 2.38. Consider `CCN(CC)CCOC(=O)c1ccc(NC(=O)OCCOCCOCCO)cc1`, for which the pEC50 was 2.49. For `CCCCN(C(=O)CCCC[C@H]1SCC2NC(=O)NC21)c1ccc(C(=O)OCCN(C)C)cc1` (some centres not stated), the pEC50 is 2.82. Regarding `CCN(CC)CCOC(=O)c1ccc(NC(=O)OCCOCCOCCOCCOCCOCCO)cc1`, the pEC50 was 2.18. Under `CCCCNc1ccc(C(=O)OCCN(C)C)cc1` [TETRACAINE] stands 4.92. Under `CCN(CC)CCOC(=O)c1ccc(N)cc1` [PROCAINE] stands 2.89.
